Results on one compound are retold here after US20230181657A1, “NOVEL LACTIC ACID BACTERIA AND USE THEREOF” (UNIVERSITY- INDUSTRY COOPERATION GROUP OF KYUNG HEE …, priority 2018, published 2023).

What all share (assay type): in vivo
Experiment [1] deals with SREBP-1c. Nature of the experiment: SREBP-1c expression in liver by qPCR, ovariectomized obesity model. Particulars: liver mRNA, qPCR in comparison with β-actin; mice with removed ovaries; bacteria 1×10^9 CFU orally, PC 10 μg/kg/day intraperitoneally; Nor 1.0 ± 0.1, Con 4.5 ± 0.5. As for the experimental part: (§1) An experiment was performed by using six C57BL/6 mice (female, 21-23 g and 6 weeks old) per group after being acclimated in a laboratory for one week as described above in (1) of Example 2. After the mice were anesthetized with isoflurane and the ovaries were removed therefrom, the resulting mice were raised for six weeks so as to create an animal model with obesity, showing a significant weight gain. From one week after ovarian removal, Lactobacillus plantarum NK3, Bifidobacterium longum NK49, a 1:1 mixture thereof, or a 4:1 mixture thereof, which is a novel lactic acid bacterium, was orally administered in a daily amount of 1×10^9 CFU for six days a week for five weeks. In addition, 17β-estradiol (PC) was intraperitoneally administered at 10 μg/kg/day to the experimental animals of the positive control group, and the sham group and the experimental group with removed ovaries were orally dosed with physiological saline solution instead of drugs. […] The body weight was measured once a week. An expression of sterol regulatory element-binding transcription factor 1c (SREBP-1c) and peroxisome proliferator-activated receptor gamma coactivator 1-alpha (PGC-1α) was measured by using a quantitative reverse transcription polymerase chain reaction (qPCR). […] The amount of final expressed genes was calculated in comparison with β-actin.

Experiment [2] deals with PGC-1α. Nature of the experiment: PGC-1α expression in liver by qPCR, ovariectomized obesity model. To be noted: liver mRNA, qPCR in comparison with β-actin; mice with removed ovaries; bacteria 1×10^9 CFU orally, PC 10 μg/kg/day intraperitoneally; Nor 1.0 ± 0.1, Con 0.6 ± 0.2. As for the experimental part:
as §1

Experiment [3] relates to animal model with osteoporosis (C57BL/6 mice with removed ovaries). Briefly: Osteoporosis indices in blood (AP activity, Ca, P, osteocalcin) of ovariectomized mice. To be noted: bacteria 1×10^9 CFU orally for five weeks. As for the experimental part: An experiment was performed by using six C57BL/6 mice (female, 21-23 g and 6 weeks old) per group after being acclimated in a laboratory for one week. After the mice were anesthetized with isoflurane, the ovaries were removed therefrom to create an animal model with osteoporosis. From one week after ovarian removal, Lactobacillus plantarum NK3, Bifidobacterium longum NK49, a 1:1 mixture thereof, or a 4:1 mixture thereof (a ratio of LP:BL is 4:1 and the same as below), which is a novel lactic acid bacterium, was orally administered in a daily amount of 1×10^9 CFU for six days a week for five weeks. In addition, 17β-estradiol (PC) was intraperitoneally administered at 10 μg/kg/day to the experimental animals of the positive control group, and the sham group and the experimental group with removed ovaries were orally dosed with physiological saline solution instead of drugs.
On the day after the administration of lactic acid bacteria was completed, the experimental animals were sacrificed, and then blood, thighbone, colon, womb, and liver were separated therefrom so as to measure osteoporosis indices.
Osteocalcin in blood was measured with R&D system ELISA Kit (Minneapolis, Minn., USA); Ca and P were measured with ASAN Ca-Lq Reagents and ASAN Pi-Lq Reagents of Asan Pharmaceutical Co., Ltd, respectively; and alkaline phosphatase (AP) activity was measured with Alkaline phosphatase activity colorimetric assay kit (Sigma, USA).

In the case of `C[C@]12CC[C@@H]3c4ccc(O)cc4CC[C@H]3[C@@H]1CC[C@@H]2O` [PC, 17β-estradiol], the SREBP-1c expression in experiment [1] came out at 2.7 ± 0.3. The PGC-1α expression in experiment [2] is 0.8 ± 0.2. The Osteocalcin in blood in experiment [3] (PC 10 μg/kg/day intraperitoneally, Con 1.85 ± 0.32) is 1.53 ± 0.15 µg/L. The Ca in blood in experiment [3] (PC 10 μg/kg/day intraperitoneally, Con 6.4 ± 0.4) stood at 6.2 ± 0.2 mg/dL. In addition, the P in blood in experiment [3] (PC 10 μg/kg/day intraperitoneally, Con 12.5 ± 1.5) was found to be 12.1 ± 1.1 mg/dL. The “AP (alkaline phosphatase activity in blood)” value in experiment [3] (PC 17β-estradiol 10 μg/kg/day intraperitoneally, Con 282.2 ± 10.3) came to 220.6 ± 10.3 IU/L.
